The values that follow come from patent US12552825B2 (Zikani Therapeutics, Inc., priority 2019, dated 2026).

What all share (type): cell-based
One assay relates to P. aeruginosa MP-3. Nature of the assay: MIC determination by CLSI broth dilution, P. aeruginosa MP-3. The conditions noted are these: Pseudomonas aeruginosa, MP3, strain MP-3. For orientation: Dilution methods test growth across graded concentrations, often in twofold steps.
In the next assay the test system is S. aureus MP-12. Nature of the assay: microbe, parasite or virus in culture. The conditions noted are these: Staphylococcus aureus, MP12, read-out: MIC S. aureus MP-12.
For another assay, the system named is E. coli MP-4. In words: MIC determination by CLSI broth dilution, E. coli MP-4. As to conditions: Escherichia coli, MP4, CLSI broth dilution; strain MP-4.
The test system of the next assay is A. baumannii MP-15. Nature of the assay: MIC determination by CLSI broth dilution, A. baumannii MP-15. As to conditions: Acinetobacter baumannii, MP15, strain MP-15, read-out: MIC A. baumanii MP-15.
The test system of the next assay is K. pneumoniae MP-546. Nature of the assay: MIC determination by CLSI broth dilution, K. pneumoniae MP-546. As to conditions: Klebsiella pneumoniae, MP546, CLSI broth dilution; strain MP-546.

Molecules are shown by their SMILES. Converted amounts (≈) assume the structure as drawn.

Consider `CO[C@]1(C)C[C@@H](C)CN(C)[C@@H](CN2CCN(S(=O)(=O)c3ccc(C)cc3)CC2)[C@H](C)OC(=O)C(C)(C)C(=O)[C@H](C)[C@H]1O[C@@H]1O[C@H](C)C[C@H](N(C)C)[C@H]1O` [Compound 139, (2S,3S,6R,8R,9R,10R)-9-(((2S,3R,4S,6R)-4-(dimethylamino)-3-hydroxy-6-methyltetrahydro-2H-pyran-2-yl)oxy)-8-methoxy-2,4,6,8,10,12,12-heptamethyl-3-((4-tosylpiperazin-1-yl)methyl)-1-oxa-4-azacyclotridecane-11,13-dione], for which the MIC in the assay with P. aeruginosa MP-3 was > 32 µg/mL; in the assay on S. aureus MP-12, 4 to 32 µg/mL (≈ 5.21 to 41.7 µM); with E. coli MP-4, > 32 µg/mL; in the assay with A. baumannii MP-15 it was > 32 µg/mL; in the assay on K. pneumoniae MP-546 it was > 32 µg/mL.
Take `CCC(O)C(C)CN1CCC(C[C@@H]2COC(=O)C(C)(C)C(=O)[C@H](C)[C@@H](O[C@@H]3O[C@H](C)C[C@H](N(C)C)[C@H]3O)[C@](C)(OC)C[C@@H](C)CN2C)CC1` (stereo partly drawn) [Compound 35]: the MIC was > 32 µg/mL with P. aeruginosa MP-3; 4 to 32 µg/mL (≈ 5.73 to 45.8 µM) with S. aureus MP-12; < 4 µg/mL in the assay on E. coli MP-4; > 32 µg/mL in the assay with A. baumannii MP-15; < 4 µg/mL against K. pneumoniae MP-546.
Turning to `CO[C@]1(C)C[C@@H](C)CN(C)[C@@H](CC2CCN(C(C)C)CC2)COC(=O)C(C)(C)C(=O)[C@H](C)[C@H]1O[C@@H]1O[C@H](C)C[C@H](N(C)C)[C@H]1O` [Compound 68], the MIC against P. aeruginosa MP-3 is > 32 µg/mL; with S. aureus MP-12, > 32 µg/mL; in the assay with E. coli MP-4, 4 to 32 µg/mL (≈ 6.25 to 50 µM); in the assay on A. baumannii MP-15 it was > 32 µg/mL; with K. pneumoniae MP-546, 4 to 32 µg/mL (≈ 6.25 to 50 µM).
Regarding `CO[C@]1(C)C[C@@H](C)CN(C)[C@@H](CN2CCN(C(C)=O)CC2)[C@H](C)OC(=O)C(C)(C)C(=O)[C@H](C)[C@H]1O[C@@H]1O[C@H](C)C[C@H](N(C)C)[C@H]1O` [Compound 135, (2S,3S,6R,8R,9R,10R)-3-((4-acetylpiperazin-1-yl)methyl)-9-(((2S,3R,4S,6R)-4-(dimethylamino)-3-hydroxy-6-methyltetrahydro-2H-pyran-2-yl)oxy)-8-methoxy-2,4,6,8,10,12,12-heptamethyl-1-oxa-4-azacyclotridecane-11,13-dione], the MIC in the assay on P. aeruginosa MP-3 is > 32 µg/mL; in the assay on S. aureus MP-12, 4 to 32 µg/mL (≈ 6.11 to 48.9 µM); in the assay on E. coli MP-4, > 32 µg/mL; in the assay on A. baumannii MP-15 it was > 32 µg/mL; in the assay with K. pneumoniae MP-546 it was > 32 µg/mL.
Turning to `CO[C@]1(C)C[C@@H](C)CN(C)[C@@H](CCCN2CCCCC2)COC(=O)C(C)(C)C(=O)[C@H](C)[C@H]1O[C@@H]1O[C@H](C)C[C@H](N(C)C)[C@H]1O` [Compound 83, (3S,6R,8R,9R,10R)-9-(((2S,3R,4S,6R)-4-(dimethylamino)-3-hydroxy-6-methyltetrahydro-2H-pyran-2-yl)oxy)-8-methoxy-4,6,8,10,12,12-hexamethyl-3-(3-(piperidin-1-yl)propyl)-1-oxa-4-azacyclotridecane-11,13-dione], the MIC against P. aeruginosa MP-3 was > 32 µg/mL; in the assay on S. aureus MP-12, 4 to 32 µg/mL (≈ 6.39 to 51.1 µM); against E. coli MP-4, < 4 µg/mL; in the assay on A. baumannii MP-15 it was > 32 µg/mL; in the assay on K. pneumoniae MP-546, < 4 µg/mL.
In the case of `CO[C@]1(C)C[C@@H](C)CN(C)[C@H](CC2CCN(CC[C@@H](C)CCC=C(C)C)CC2)[C@@H](C)OC(=O)C(C)(C)C(=O)[C@H](C)[C@H]1O[C@@H]1O[C@H](C)C[C@H](N(C)C)[C@H]1O` [Compound 40], the MIC is > 32 µg/mL against P. aeruginosa MP-3; 4 to 32 µg/mL (≈ 5.33 to 42.7 µM) in the assay with S. aureus MP-12; < 4 µg/mL against E. coli MP-4; 4 to 32 µg/mL (≈ 5.33 to 42.7 µM) with A. baumannii MP-15; 4 to 32 µg/mL (≈ 5.33 to 42.7 µM) in the assay on K. pneumoniae MP-546.
Consider `CO[C@]1(C)C[C@@H](C)CN(C)[C@@H](CCCN(C)C(C)C)COC(=O)C(C)(C)C(=O)[C@H](C)[C@H]1O[C@@H]1O[C@H](C)C[C@H](N(C)C)[C@H]1O` [Compound 11, (3S,6R,8R,9R,10R)-9-(((2S,3R,4S,6R)-4-(dimethylamino)-3-hydroxy-6-methyltetrahydro-2H-pyran-2-yl)oxy)-3-(3-(isopropyl(methyl)amino)propyl)-8-methoxy-4,6,8,10,12,12-hexamethyl-1-oxa-4-azacyclotridecane-11,13-dione], for which the MIC in the assay with P. aeruginosa MP-3 is > 32 µg/mL; with S. aureus MP-12, 4 to 32 µg/mL (≈ 6.52 to 52.1 µM); with E. coli MP-4, < 4 µg/mL; in the assay with A. baumannii MP-15, > 32 µg/mL; in the assay with K. pneumoniae MP-546 it was < 4 µg/mL.
In the case of `CCCCCCCN1CCC(C[C@H]2COC(=O)C(C)(C)C(=O)[C@H](C)[C@@H](O[C@@H]3O[C@H](C)C[C@H](N(C)C)[C@H]3O)[C@](C)(OC)C[C@@H](C)CN2C)CC1` [Compound 70], the MIC against P. aeruginosa MP-3 is > 32 µg/mL; with S. aureus MP-12 it was > 32 µg/mL; against E. coli MP-4 it was < 4 µg/mL; with A. baumannii MP-15 it was > 32 µg/mL; against K. pneumoniae MP-546, 4 to 32 µg/mL (≈ 5.75 to 46 µM).
On to `CO[C@]1(C)C[C@@H](C)CN(C)[C@@H](CN(C)Cc2nccn2C)COC(=O)C(C)(C)C(=O)[C@H](C)[C@H]1O[C@@H]1O[C@H](C)C[C@H](N(C)C)[C@H]1O` [Compound 104, (3S,6R,8R,9R,10R)-9-(((2S,3R,4S,6R)-4-(Dimethylamino)-3-hydroxy-6-methyltetrahydro-2H-pyran-2-yl)oxy)-8-methoxy-4,6,8,10,12,12-hexamethyl-3-((methyl((1-methyl-11H-imidazol-2-yl)methyl)amino)methyl)-1-oxa-4-azacyclotridecane-11,13-dione], for which the MIC in the assay with P. aeruginosa MP-3 was > 32 µg/mL; in the assay with S. aureus MP-12 it was > 32 µg/mL; against E. coli MP-4, 4 to 32 µg/mL (≈ 6.27 to 50.2 µM); in the assay with A. baumannii MP-15, > 32 µg/mL; against K. pneumoniae MP-546 it was > 32 µg/mL.
As to `CO[C@]1(C)C[C@@H](C)CN(C)[C@@H](CCCN(C)C)COC(=O)C(C)(C)C(=O)[C@H](C)[C@H]1O[C@@H]1O[C@H](C)C[C@H](N(C)C)[C@H]1O` [Compound 6, (3S,6R,8R,9R,10R)-9-(((2S,3R,4S,6R)-4-(dimethylamino)-3-hydroxy-6-methyltetrahydro-2H-pyran-2-yl)oxy)-3-(3-(dimethylamino)propyl)-8-methoxy-4,6,8,10,12,12-hexamethyl-1-oxa-4-azacyclotridecane-11,13-dione], the MIC against P. aeruginosa MP-3 was > 32 µg/mL; with S. aureus MP-12, > 32 µg/mL; against E. coli MP-4, < 4 µg/mL; in the assay on A. baumannii MP-15, > 32 µg/mL; with K. pneumoniae MP-546, < 4 µg/mL.
Consider `CO[C@]1(C)C[C@@H](C)CN(C)[C@@H](CN2CCN(C(=O)C(C)(C)C)CC2)[C@H](C)OC(=O)C(C)(C)C(=O)[C@H](C)[C@H]1O[C@@H]1O[C@H](C)C[C@H](N(C)C)[C@H]1O` [Compound 114, (2S,3S,6R,8R,9R,10R)-9-(((2S,3R,4S,6R)-4-(dimethylamino)-3-hydroxy-6-methyltetrahydro-2H-pyran-2-yl)oxy)-8-methoxy-2,4,6,8,10,12,12-heptamethyl-3-((4-pivaloylpiperazin-1-yl)methyl)-1-oxa-4-azacyclotridecane-11,13-dione], for which the MIC against P. aeruginosa MP-3 was > 32 µg/mL; in the assay on S. aureus MP-12, 4 to 32 µg/mL (≈ 5.74 to 45.9 µM); with E. coli MP-4, > 32 µg/mL; with A. baumannii MP-15, > 32 µg/mL; against K. pneumoniae MP-546 it was > 32 µg/mL.
For the compound `CCCN1CCC(C[C@H]2N(C)C[C@H](C)C[C@@](C)(OC)[C@H](O[C@@H]3O[C@H](C)C[C@H](N(C)C)[C@H]3O)[C@@H](C)C(=O)C(C)(C)C(=O)OC2(C)C)CC1` [Compound 46], the MIC against P. aeruginosa MP-3 is > 32 µg/mL; in the assay on S. aureus MP-12, 4 to 32 µg/mL (≈ 5.99 to 47.9 µM); with E. coli MP-4, < 4 µg/mL; in the assay with A. baumannii MP-15 it was > 32 µg/mL; in the assay on K. pneumoniae MP-546, < 4 µg/mL.
With `CO[C@]1(C)C[C@@H](C)CN(C)[C@@H](CC2CCN(CC3CCCCC3)CC2)COC(=O)C(C)(C)C(=O)[C@H](C)[C@H]1O[C@@H]1O[C@H](C)C[C@H](N(C)C)[C@H]1O` [Compound 72], the MIC in the assay with P. aeruginosa MP-3 is > 32 µg/mL; with S. aureus MP-12, > 32 µg/mL; in the assay on E. coli MP-4 it was < 4 µg/mL; with A. baumannii MP-15, > 32 µg/mL; against K. pneumoniae MP-546, 4 to 32 µg/mL (≈ 5.76 to 46.1 µM).
In the case of `CO[C@]1(C)C[C@@H](C)CN(C)[C@@H](CC2CCN(CC(C)(C)C)CC2)C(C)(C)OC(=O)C(C)(C)C(=O)[C@H](C)[C@H]1O[C@@H]1O[C@H](C)C[C@H](N(C)C)[C@H]1O` [Compound 37], the MIC was > 32 µg/mL in the assay on P. aeruginosa MP-3; > 32 µg/mL in the assay on S. aureus MP-12; 4 to 32 µg/mL (≈ 5.75 to 46 µM) against E. coli MP-4; > 32 µg/mL with A. baumannii MP-15; > 32 µg/mL in the assay with K. pneumoniae MP-546.
Regarding `CCCN1CCC(C[C@@H]2N(C)C[C@H](C)C[C@@](C)(OC)[C@H](O[C@@H]3O[C@H](C)C[C@H](N(C)C)[C@H]3O)[C@@H](C)C(=O)C(C)(C)C(=O)OC2(C)C)CC1` [Compound 48], the MIC was > 32 µg/mL in the assay on P. aeruginosa MP-3; > 32 µg/mL in the assay with S. aureus MP-12; < 4 µg/mL against E. coli MP-4; > 32 µg/mL in the assay on A. baumannii MP-15; 4 to 32 µg/mL (≈ 5.99 to 47.9 µM) against K. pneumoniae MP-546.
Take `CCCN1CCC(C[C@@H]2[C@@H](C)OC(=O)C(C)(C)C(=O)[C@H](C)[C@@H](O[C@@H]3O[C@H](C)C[C@H](N(C)C)[C@H]3O)[C@](C)(OC)C[C@@H](C)CN2C)CC1` [Compound 38]: the MIC is > 32 µg/mL against P. aeruginosa MP-3; > 32 µg/mL with S. aureus MP-12; < 4 µg/mL with E. coli MP-4; > 32 µg/mL in the assay on A. baumannii MP-15; < 4 µg/mL against K. pneumoniae MP-546.
Consider `CCN(CC)CCC[C@H]1COC(=O)C(C)(C)C(=O)[C@H](C)[C@@H](O[C@@H]2O[C@H](C)C[C@H](N(C)C)[C@H]2O)[C@](C)(OC)C[C@@H](C)CN1C` [Compound 19, (3S,6R,8R,9R,10R)-3-(3-(diethylamino)propyl)-9-(((2S,3R,4S,6R)-4-(dimethylamino)-3-hydroxy-6-methyltetrahydro-2H-pyran-2-yl)oxy)-8-methoxy-4,6,8,10,12,12-hexamethyl-1-oxa-4-azacyclotridecane-11,13-dione], for which the MIC in the assay on P. aeruginosa MP-3 was > 32 µg/mL; in the assay on S. aureus MP-12, 4 to 32 µg/mL (≈ 6.52 to 52.1 µM); against E. coli MP-4, < 4 µg/mL; in the assay on A. baumannii MP-15, > 32 µg/mL; with K. pneumoniae MP-546, < 4 µg/mL.
On to `CO[C@]1(C)C[C@@H](C)CN(C)[C@@H](CC2CCN(C3CC3)CC2)COC(=O)C(C)(C)C(=O)[C@H](C)[C@H]1O[C@@H]1O[C@H](C)C[C@H](N(C)C)[C@H]1O` [Compound 69], for which the MIC was > 32 µg/mL against P. aeruginosa MP-3; 4 to 32 µg/mL (≈ 6.27 to 50.2 µM) in the assay with S. aureus MP-12; 4 to 32 µg/mL (≈ 6.27 to 50.2 µM) in the assay on E. coli MP-4; > 32 µg/mL in the assay with A. baumannii MP-15; 4 to 32 µg/mL (≈ 6.27 to 50.2 µM) with K. pneumoniae MP-546.
